Measurements published in paper PMC11940343, “In Vitro and In Vivo Evaluation of the De Novo Designed Antimicrobial Peptide P6.2 Against a KPC-Producing P. aeruginosa Clinical Isolate” (Biomolecules, 2025).
No end group written: not given here.

Tests used:
P. aeruginosa M13513 [1] = tested on: P. aeruginosa M13513
Experimental: To analyze the stability of the molecule, the peptide was exposed to different temperatures for varying durations. The conditions tested involved incubation at 37 °C for 24 h, at 60 °C for 2 h, and at 100 °C for 15 min. Each condition was set up in a microtube with the peptide dissolved in sterile deionized water. As a control, the peptide was dissolved immediately before testing without temperature incubation. Afterward, the broth microdilution assay was conducted to assess its antimicrobial effectiveness. Additionally, the stability of the peptide in serum was examined. Three microtubes were prepared, each containing sterile deionized water with FCBS (fetal calf bovine serum) 25% (v/v) and the antimicrobial peptide. Two of these samples were incubated at 37 °C for 24 h or 2 h, while the third sample was prepared just before testing without any temperature incubation. As controls, serum alone and peptide without serum were used. The antimicrobial activity was subsequently evaluated through the broth microdilution assay. In order to assess the stability of the AMP, P6.2 was incubated at different temperature conditions or with FBS (fetal bovine serum) for different time periods. The temperature exposures were overnight (ON) at 37 °C, 120 min at 60 °C, and 15 min at 100 °C. […]

[2] = tested on: RAW 264.7 (murine macrophage-like ATCC TIB-71); format: cell-based
Experimental: (§1) The toxic effect was evaluated indirectly using the colorimetric MTT assay (3-[4,5-dimethylthiazol-2-yl]-2,5-diphenyl tetrazolium bromide, Thermo Fisher Scientific Inc, Massachusetts, USA) on A549 (human lung adenocarcinoma, ATCC CCL-185) and RAW 264.7 (murine macrophage-like ATCC TIB-71) cell lines. Cell lines were kindly provided by Instituto de Virología e Innovaciones Tecnológicas (IVIT), (INTA-CONICET, Buenos Aires, Argentina).
(§2) For the assay, A549 cells were seeded in 96-well plates at a density of 1 × 10^4 cells per well, while RAW 264.7 cells were seeded at a density of 5 × 10^4 cells per well. The plates were incubated for 24 h at 37 °C with 5% CO^2 to allow cell adhesion. The peptide P6.2 was dissolved in distilled water at a stock concentration of 10.24 mg/mL, and serial dilutions were made in RPMI-1640 medium supplemented with 10% fetal bovine serum (FBS, Internegocios S.A., Mercedes, Argentina). The concentrations used to assess P6.2 toxicity were the same as those previously employed in bacterial studies to determine the minimum inhibitory concentration (MIC) in antimicrobial activity assays. For the A549 cell line, P6.2 concentrations ranged from 4 µg/mL to 1024 µg/mL using serial dilutions in culture medium. For the RAW 264.7 cells, P6.2 concentrations ranged from 256 µg/mL to 8 µg/mL, with the concentration range adjusted based on preliminary results obtained from the A549 cell line.
(§3) Peptides were added and plates were incubated for 24 h at 37 °C in a 5% CO2 atmosphere. After incubation, the culture medium was removed, and the cells were washed with PBS (Phosphate Buffered Saline pH 7.2) to remove any remnants of the treatments. Next, 100 µL of MTT solution (0.5 mg/mL in PBS) was added to each well, and the plates were incubated for 0.5 to 3 h at 37 °C. During this period, viable cells reduced MTT, forming visible formazan crystals under a light field microscope (Zeiss Primovent, Oberkochen, Germany), indicating the cell metabolism of the compound.
(§4) At the end of the incubation, the supernatant was removed, and 200 µL of DMSO was added to each well to dissolve the formazan crystals. The plates were shaken to homogenize the contents, and absorbance was measured at 570 nm using a microplate reader (RT2100, Rayto Life and Analytical Sciences Co., Ltd, Shenzhen, China). Triplicates were run for each treatment. Cell viability was calculated by setting the absorbance value obtained for untreated control cells as 100% viability.

[3] = tested on: A549 (human lung adenocarcinoma, ATCC CCL-185); format: cell-based
Experimental: as §1, §2, §3, §4

P. aeruginosa M13513 [4] = assay: Inhibition of biofilm formation (crystal violet); format: cell-based, Pseudomonas aeruginosa; conditions: sub-MIC concentrations (1/8 to 1/2 of the MIC), 24 h
Experimental: The assessment of biofilm inhibition was carried out using 96-well flat-bottom polystyrene plates. Antimicrobial agents were diluted in Mueller–Hinton broth through a two-fold serial dilution and subsequently inoculated with a fresh bacterial culture to obtain a final concentration of 5 × 10^5 CFU/mL, with a total well volume of 100 µL. The plates were then incubated at 37 °C for 24 h. Bacteria cultured without the peptide served as the control. To evaluate biofilm formation following peptide exposure, the supernatant was carefully removed, and the wells were washed twice with 100 µL of saline solution to eliminate any non-adherent cells. The remaining biofilm was fixed by adding 100 µL of methanol for 15 min, followed by staining with 100 µL of 1% (v/v) crystal violet ( Sigma-Aldrich, Massachusetts, USA) for 5 min. After staining, the excess dye was discarded, and the wells were rinsed twice with 200 µL of distilled water before allowing the plate to dry at 37 °C for 30 min. Finally, 100 µL of 33% acetic acid was added to each well, and the samples were homogenized by gentle agitation. The absorbance was then measured at 595 nm using a microplate reader (RT2100, Rayto Life and Analytical Sciences Co., Ltd., Shenzhen, China).

P. aeruginosa M13513 [5] = assay: Bactericidal effect by killing kinetics (time-kill curve); format: cell-based, Pseudomonas aeruginosa; conditions: killing kinetics at 64 µg/mL of P6.2
Experimental: The bactericidal activity was determined according to the CLSI recommendations. In short, the bactericidal activity of the antimicrobial agents on the microorganisms was evaluated using a time–kill curve. The Minimal Bactericidal Concentration (MBC) is the lowest drug concentration required to eliminate 99.9% of viable organisms (a 3-log reduction in CFU/mL compared to the control) after a set incubation period under defined conditions. This is the most common method for estimating bactericidal activity.
The killing kinetics of an antimicrobial agent allow us to observe how the agent exerts its activity as a function of time, determining viable cells by counting colony-forming units at different time points. Normally, for commonly used antibiotics, this measurement is carried out over a 24-h period, since they reach their maximum activity during this period. However, for AMPs, these times are much shorter; in fact, these antimicrobials exert their maximum activity in just hours or minutes. For this reason, killing kinetics at MIC was carried out by measuring viable bacteria at short intervals over a period of three hours.

P. aeruginosa M13513 [6] = assay: Peptide stability at different temperatures, read out by broth microdilution MIC; format: physicochemical, Pseudomonas aeruginosa; design: unit not given beside the values; conditions: peptide in sterile deionized water, then broth microdilution vs P. aeruginosa M13513
Experimental: To analyze the stability of the molecule, the peptide was exposed to different temperatures for varying durations. The conditions tested involved incubation at 37 °C for 24 h, at 60 °C for 2 h, and at 100 °C for 15 min. Each condition was set up in a microtube with the peptide dissolved in sterile deionized water. As a control, the peptide was dissolved immediately before testing without temperature incubation. Afterward, the broth microdilution assay was conducted to assess its antimicrobial effectiveness. Additionally, the stability of the peptide in serum was examined. Three microtubes were prepared, each containing sterile deionized water with FCBS (fetal calf bovine serum) 25% (v/v) and the antimicrobial peptide. Two of these samples were incubated at 37 °C for 24 h or 2 h, while the third sample was prepared just before testing without any temperature incubation. As controls, serum alone and peptide without serum were used. The antimicrobial activity was subsequently evaluated through the broth microdilution assay. In order to assess the stability of the AMP, P6.2 was incubated at different temperature conditions or with FBS (fetal bovine serum) for different time periods. The temperature exposures were overnight (ON) at 37 °C, 120 min at 60 °C, and 15 min at 100 °C. P6.2 was incubated with 25% FBS at 37 °C for 2 and 24 h before the experiment or directly at the moment of the experiment. Then, a microdilution assay was performed to test the antimicrobial activity.

GLLRKWGKKWKEFLRRVWK-NH2 [Peptide P6.2]
reduction of antimicrobial activity after serum incubation (P. aeruginosa M13513 [1]): two-fold dilution
LogCC50 [2]: 2.188
CC50 (cytotoxic concentration 50%) ([2]; 24 h): 154.1 µg/mL
LogCC50 [3]: 2.100
CC50 (cytotoxic concentration 50%) ([3]; 24 h): 125.8 µg/mL
biofilm inhibitory activity (P. aeruginosa M13513 [4]): did not show anti-biofilm activity
time to 99.9% reduction in viable bacteria (bactericidal effect) (P. aeruginosa M13513 [5]): less than 45 min
MIC after temperature exposure (P. aeruginosa M13513 [6]; 37 °C ON (24 h)): 32/64
MIC after temperature exposure (P. aeruginosa M13513 [6]; 60 °C 120 min): 32/64
MIC after temperature exposure (P. aeruginosa M13513 [6]; 100 °C 15 min): 32/64
